ChEMBL document CHEMBL1201862, “PubChem BioAssay data set” (2004)
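Cultured in 96-well plates, cells were exposed to test compound for 48 hours across five concentrations. At the GI50, growth is halved.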 Calls of active or inactive are those of the source. Cut-off read from the data, not from the text of the source: active = GI50 up to about 1.1 µM and inactive = higher.

Assays:
Assay in all cases: growth of human tumour cells (NCI), 48 h
786-0 = system: 786-0
A498 = system: A498
A549 = system: A549
ACHN = system: ACHN
BT-549 = system: BT-549
CAKI-1 = system: CAKI-1
CCRF-CEM = system: CCRF-CEM
COLO 205 = system: COLO 205
EKVX = system: EKVX
HCC 2998 = system: HCC 2998
HCT-116 = system: HCT-116
HCT-15 = system: HCT-15
HL-60 = system: HL-60
HOP-62 = system: HOP-62
HOP-92 = system: HOP-92
HT-29 = system: HT-29
Hs-578T = system: Hs-578T
IGROV-1 = system: IGROV-1
K562 = system: K562
LOX IMVI = system: LOX IMVI
M14 = system: M14
MCF7 = system: MCF7
MDA-MB-435 = system: MDA-MB-435
MDA-N = system: MDA-N
MOLT-4 = system: MOLT-4
Malme-3M = system: Malme-3M
NCI-H23 = system: NCI-H23
NCI-H460 = system: NCI-H460
NCI/ADR-RES = system: NCI/ADR-RES
OVCAR-3 = system: OVCAR-3
OVCAR-4 = system: OVCAR-4
OVCAR-5 = system: OVCAR-5
OVCAR-8 = system: OVCAR-8
PC-3 = system: PC-3
RPMI-8226 = system: RPMI-8226
SF-268 = system: SF-268
SF-295 = system: SF-295
SF-539 = system: SF-539
SK-MEL-28 = system: SK-MEL-28
SK-MEL-2 = system: SK-MEL-2
SK-MEL-5 = system: SK-MEL-5
SK-OV-3 = system: SK-OV-3
SN12C = system: SN12C
SNB-19 = system: SNB-19
SR = system: SR
SW-620 = system: SW-620
TK-10 = system: TK-10
UACC-257 = system: UACC-257
UACC-62 = system: UACC-62
UO-31 = system: UO-31
DU-145 = system: DU-145
KM12 = system: KM12
MDA-MB-231 = system: MDA-MB-231
NCI-H226 = system: NCI-H226
NCI-H522 = system: NCI-H522
RXF 393 = system: RXF 393
SNB-75 = system: SNB-75
U-251 = system: U-251

Measured: GI50

COc1ccc(CCc2nccn2C)cc1OC
inactive: 786-0 > 100 µM | A498 > 100 µM | A549 > 100 µM | ACHN > 100 µM | BT-549 > 100 µM | CAKI-1 > 100 µM | CCRF-CEM > 100 µM | COLO 205 > 100 µM | EKVX > 100 µM | HCC 2998 > 100 µM | HCT-116 > 100 µM | HL-60 > 100 µM | HOP-62 > 100 µM | HOP-92 > 100 µM | HT-29 > 100 µM | Hs-578T > 100 µM | IGROV-1 > 100 µM | K562 > 100 µM | LOX IMVI > 100 µM | M14 > 100 µM | MCF7 > 100 µM | MDA-MB-435 > 100 µM | MDA-N > 100 µM | MOLT-4 > 100 µM | Malme-3M > 100 µM | NCI-H23 > 100 µM | NCI-H460 > 100 µM | NCI/ADR-RES > 100 µM | OVCAR-3 > 100 µM | OVCAR-4 > 100 µM | OVCAR-5 > 100 µM | OVCAR-8 > 100 µM | PC-3 > 100 µM | RPMI-8226 > 100 µM | SF-268 > 100 µM | SF-295 > 100 µM | SF-539 > 100 µM | SK-MEL-28 > 100 µM | SK-MEL-2 > 100 µM | SK-MEL-5 > 100 µM | SK-OV-3 > 100 µM | SN12C > 100 µM | SNB-19 > 100 µM | SR > 100 µM | SW-620 > 100 µM | TK-10 > 100 µM | UACC-257 > 100 µM | UACC-62 > 100 µM | UO-31 > 100 µM
> 100 µM: HCT-15

Cn1c(=N)n[n+]([O-])c2ccccc21
active: MDA-MB-435 0.877 µM
inactive: 786-0 8.2 µM | A549 11.7 µM | ACHN 5.48 µM | BT-549 2.01 µM | CAKI-1 2.31 µM | CCRF-CEM 4.24 µM | COLO 205 2.33 µM | DU-145 2.28 µM | EKVX 9.93 µM | HCC 2998 20.6 µM | HCT-116 4.14 µM | HL-60 2.17 µM | HOP-62 2.52 µM | HOP-92 23.7 µM | HT-29 3.1 µM | IGROV-1 3.46 µM | K562 1.36 µM | KM12 19 µM | LOX IMVI 2.59 µM | M14 1.95 µM | MCF7 1.8 µM | MDA-MB-231 11.7 µM | MDA-N 1.66 µM | MOLT-4 1.87 µM | Malme-3M 2.34 µM | NCI-H226 13.4 µM | NCI-H23 2.16 µM | NCI-H522 2.86 µM | OVCAR-3 1.55 µM | OVCAR-4 1.94 µM | OVCAR-5 2.51 µM | OVCAR-8 13.2 µM | PC-3 6.28 µM | RXF 393 19.6 µM | SF-295 3.54 µM | SF-539 1.5 µM | SK-MEL-2 3.47 µM | SK-MEL-5 1.59 µM | SK-OV-3 22.9 µM | SN12C 2.13 µM | SNB-75 3.78 µM | SW-620 2.74 µM | TK-10 27.2 µM | U-251 7.69 µM | UACC-257 1.94 µM | UACC-62 1.75 µM | UO-31 5.16 µM

CC(CCOc1c2ccoc2cc2oc(=O)ccc12)C1=CC(=O)C(C)(C)O1 (centres undefined)
> 100 µM: HCT-15
inactive: 786-0 > 100 µM | A549 > 100 µM | ACHN > 100 µM | BT-549 71 µM | CAKI-1 > 100 µM | CCRF-CEM > 100 µM | COLO 205 > 100 µM | DU-145 > 100 µM | EKVX > 100 µM | HCC 2998 > 100 µM | HCT-116 > 100 µM | HL-60 > 100 µM | HOP-62 > 100 µM | HOP-92 > 100 µM | HT-29 > 100 µM | Hs-578T > 100 µM | IGROV-1 > 100 µM | K562 > 100 µM | KM12 > 100 µM | LOX IMVI > 100 µM | M14 > 100 µM | MCF7 > 100 µM | MDA-MB-231 > 100 µM | MDA-MB-435 > 100 µM | MDA-N > 100 µM | MOLT-4 > 100 µM | Malme-3M > 100 µM | NCI-H226 > 100 µM | NCI-H23 > 100 µM | NCI-H460 > 100 µM | NCI-H522 13.9 µM | NCI/ADR-RES > 100 µM | OVCAR-3 > 100 µM | OVCAR-4 42 µM | OVCAR-5 > 100 µM | OVCAR-8 > 100 µM | PC-3 > 100 µM | RPMI-8226 > 100 µM | RXF 393 > 100 µM | SF-268 > 100 µM | SF-295 > 100 µM | SF-539 > 100 µM | SK-MEL-28 > 100 µM | SK-MEL-2 > 100 µM | SK-MEL-5 > 100 µM | SK-OV-3 > 100 µM | SN12C > 100 µM | SNB-19 > 100 µM | SR > 100 µM | SW-620 > 100 µM | TK-10 > 100 µM | U-251 > 100 µM | UACC-257 > 100 µM | UACC-62 > 100 µM | UO-31 > 100 µM
